Assay results from article PMC6917776, “Discovery of a chemical probe for PRDM9” (Nature Communications, 2019).
Like-named read-outs stand apart in the source and are kept apart here.

Test: CelltiterGlo viability cell assay
Assay type: cell-based
Settings: human; for viability at 3 day, 9.5 µM / viability at 3 day, 30 µM / viability at 6 day, 0.01 µM / viability at 6 day, 0.03 µM / viability at 6 day, 0.1 µM: SKMM2 cells (multiple myeloma line); for viability at 3 day, 0.01 µM / viability at 3 day, 0.03 µM: SKMM2 cells
Method in brief: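 Dose range 0.01 μM to 30 μM, exposure 3 or 6 days. Read-out: CelltiterGlo, as a percentage of DMSO vehicle, averaged over three biological replicates with SEM.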

[1] = RPMI-8226 multiple myeloma cells, 8226, 3 day, read-out: viability Replicate 1
[2] = RPMI-8226 multiple myeloma cells, 8226, 3 day, read-out: viability Replicate 2
[3] = RPMI-8226 multiple myeloma cells, 8226, 3 day, read-out: viability Replicate 3
[4] = RPMI-8226 multiple myeloma cells, 8226, 3 day, read-out: viability Average
[5] = RPMI-8226 multiple myeloma cells, 8226, 6 day, read-out: viability Average
[6] = RPMI-8226 multiple myeloma cells, 8226, 6 day, read-out: viability Replicate 1
[7] = RPMI-8226 multiple myeloma cells, 8226, 6 day, read-out: viability Replicate 2
[8] = RPMI-8226 multiple myeloma cells, 8226, 6 day, read-out: viability Replicate 3
[9] = SKMM2, 3 day, read-out: viability Average
[10] = SKMM2, 3 day, read-out: viability Replicate 1
[11] = SKMM2, 3 day, read-out: viability Replicate 2
[12] = SKMM2, 3 day, read-out: viability Replicate 3
[13] = SKMM2, 6 day, read-out: viability Average
[14] = SKMM2, 6 day, read-out: viability Replicate 1
[15] = SKMM2, 6 day, read-out: viability Replicate 2
[16] = SKMM2, 6 day, read-out: viability Replicate 3
[17] = SKMM2 multiple myeloma cells, SKMM2, 3 day, read-out: viability Average
[18] = SKMM2 multiple myeloma cells, SKMM2, 3 day, read-out: viability Replicate 1
[19] = SKMM2 multiple myeloma cells, SKMM2, 3 day, read-out: viability Replicate 2
[20] = SKMM2 multiple myeloma cells, SKMM2, 3 day, read-out: viability Replicate 3
[21] = SKMM2 multiple myeloma cells, SKMM2, 6 day, read-out: viability Average
[22] = SKMM2 multiple myeloma cells, SKMM2, 6 day, read-out: viability Replicate 1
[23] = SKMM2 multiple myeloma cells, SKMM2, 6 day, read-out: viability Replicate 2
[24] = SKMM2 multiple myeloma cells, SKMM2, 6 day, read-out: viability Replicate 3

In the case of `COc1cc(OC)cc(-c2noc(N3CCN(C)C4(CCN(c5ccnc(C)c5)CC4)C3)n2)c1` [MRK-740], the viability at 3 day, 0.3 µM [1] is reported as 101%, the viability at 3 day, 0.3 µM [2] is reported as 101% and the viability at 3 day, 0.3 µM [3] is reported as 104%. For the same compound, the viability at 3 day, 1 µM [4] was 104%, the viability at 3 day, 1 µM [1] was 104% and the viability at 3 day, 1 µM [2] was 102%. It also gave a viability at 3 day, 1 µM [3] of 105%, a viability at 3 day, 3 µM [4] of 106% and a viability at 3 day, 3 µM [1] of 106%. It also gave a viability at 3 day, 3 µM [2] of 105%, a viability at 3 day, 3 µM [3] of 107% and a viability at 6 day, 0.3 µM [5] of 98.9%. It also gave a viability at 6 day, 0.3 µM [6] of 97.6%, a viability at 6 day, 0.3 µM [7] of 98.6% and a viability at 6 day, 0.3 µM [8] of 101%. It also gave a viability at 6 day, 1 µM [5] of 97.3%, a viability at 6 day, 1 µM [6] of 95% and a viability at 6 day, 1 µM [7] of 99.7%. The viability at 6 day, 1 µM [8] was 97.2%, the viability at 6 day, 3 µM [5] was 92.6% and the viability at 6 day, 3 µM [6] was 89.2%. For the same compound, the viability at 6 day, 3 µM [7] was 96.8%, the viability at 6 day, 3 µM [8] was 91.7% and the viability at 6 day, 9.5 µM [5] was 82.7%. The viability at 6 day, 9.5 µM [6] was 77%, the viability at 6 day, 9.5 µM [7] was 85.6% and the viability at 6 day, 9.5 µM [8] was 85.5%. For the same compound, the viability at 6 day, 30 µM [5] was 70.7%, the viability at 6 day, 30 µM [6] was 82% and the viability at 6 day, 30 µM [7] was 56.4%. For the same compound, the viability at 6 day, 30 µM [8] was 73.5%, the viability at 3 day, 9.5 µM [9] was 93.2% and the viability at 3 day, 9.5 µM [10] was 95.7%. The viability at 3 day, 9.5 µM [11] was 89.2%, the viability at 3 day, 9.5 µM [12] was 94.7% and the viability at 3 day, 30 µM [9] was 67%. For the same compound, the viability at 3 day, 30 µM [10] was 70.4%, the viability at 3 day, 30 µM [11] was 59% and the viability at 3 day, 30 µM [12] was 71.7%. It also gave a viability at 6 day, 0.01 µM [13] of 99.7%, a viability at 6 day, 0.01 µM [14] of 96.8% and a viability at 6 day, 0.01 µM [15] of 103%. For the same compound, the viability at 6 day, 0.01 µM [16] was 99.2%, the viability at 6 day, 0.03 µM [13] was 98.1% and the viability at 6 day, 0.03 µM [14] was 90.3%. The viability at 6 day, 0.03 µM [15] was 105%, the viability at 6 day, 0.03 µM [16] was 98.8% and the viability at 6 day, 0.1 µM [13] was 96.7%. For the same compound, the viability at 6 day, 0.1 µM [14] was 86.5%, the viability at 6 day, 0.1 µM [15] was 107% and the viability at 6 day, 0.1 µM [16] was 96.8%. The viability at 3 day, 0.01 µM [9] was 101%, the viability at 3 day, 0.01 µM [10] was 101% and the viability at 3 day, 0.01 µM [11] was 99.6%. For the same compound, the viability at 3 day, 0.01 µM [12] was 102%, the viability at 3 day, 0.03 µM [9] was 101% and the viability at 3 day, 0.03 µM [10] was 99.8%. The viability at 3 day, 0.03 µM [11] was 99.2%, the viability at 3 day, 0.03 µM [12] was 103% and the viability at 3 day, 0.1 µM [17] was 103%. For the same compound, the viability at 3 day, 0.1 µM [18] was 102%, the viability at 3 day, 0.1 µM [19] was 100% and the viability at 3 day, 0.1 µM [20] was 105%. It also gave a viability at 3 day, 0.3 µM [17] of 101%, a viability at 3 day, 0.3 µM [18] of 101% and a viability at 3 day, 0.3 µM [19] of 98.7%. For the same compound, the viability at 3 day, 0.3 µM [20] was 103%, the viability at 3 day, 1 µM [17] was 101% and the viability at 3 day, 1 µM [18] was 99.9%. It also gave a viability at 3 day, 1 µM [19] of 99.6%, a viability at 3 day, 1 µM [20] of 104% and a viability at 3 day, 3 µM [17] of 99.8%. The viability at 3 day, 3 µM [18] was 97.6%, the viability at 3 day, 3 µM [19] was 98.3% and the viability at 3 day, 3 µM [20] was 104%. For the same compound, the viability at 6 day, 0.3 µM [21] was 98.1%, the viability at 6 day, 0.3 µM [22] was 88.2% and the viability at 6 day, 0.3 µM [23] was 106%. For the same compound, the viability at 6 day, 0.3 µM [24] was 100%, the viability at 6 day, 1 µM [21] was 96.5% and the viability at 6 day, 1 µM [22] was 88%. It also gave a viability at 6 day, 1 µM [23] of 105%, a viability at 6 day, 1 µM [24] of 96.3% and a viability at 6 day, 3 µM [21] of 96.8%. For the same compound, the viability at 6 day, 3 µM [22] was 85.2%, the viability at 6 day, 3 µM [23] was 105% and the viability at 6 day, 3 µM [24] was 100%. For the same compound, the viability at 6 day, 9.5 µM [21] was 94.5%, the viability at 6 day, 9.5 µM [22] was 83.8% and the viability at 6 day, 9.5 µM [23] was 102%. For the same compound, the viability at 6 day, 9.5 µM [24] was 97.7%, the viability at 6 day, 30 µM [21] was 71.5% and the viability at 6 day, 30 µM [22] was 71.4%. It also gave a viability at 6 day, 30 µM [23] of 66% and a viability at 6 day, 30 µM [24] of 77.2%.
